ChEMBL document CHEMBL1201862, “PubChem BioAssay data set” (2004)
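Values below derive from 48-hour exposures of cells grown in 96-well plates, with endpoints linearly interpolated between the two concentrations bracketing the appropriate inhibition level. The concentration for 50% growth inhibition is given as GI50.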 The source made the active and inactive calls. Rule as the data show it: active = GI50 up to about 1.1 µM and inactive = higher.

How the values were obtained:
Test in all cases: inhibition of tumour cell growth, NCI panel, 48 h
A498 = system: A498
NCI-H23 = system: NCI-H23
PC-3 = system: PC-3
OVCAR-4 = system: OVCAR-4
ACHN = system: ACHN
MDA-MB-231 = system: MDA-MB-231
M14 = system: M14
SN12C = system: SN12C
K562 = system: K562
U-251 = system: U-251
SK-MEL-5 = system: SK-MEL-5
SF-539 = system: SF-539
HCT-116 = system: HCT-116
UACC-62 = system: UACC-62
LOX IMVI = system: LOX IMVI
Hs-578T = system: Hs-578T
SF-295 = system: SF-295
EKVX = system: EKVX
SK-OV-3 = system: SK-OV-3
TK-10 = system: TK-10

Measured: GI50

O=c1c2c([N+](=O)[O-])cccc2nc2[nH]c3ccccc3n12
inactive: A498 26.6 µM | NCI-H23 32.9 µM | PC-3 57.8 µM | OVCAR-4 11.6 µM | ACHN 13.9 µM | MDA-MB-231 14.7 µM | M14 > 75 µM | SN12C 25.6 µM | K562 > 75 µM | U-251 20.2 µM | SK-MEL-5 35 µM | SF-539 13.3 µM | HCT-116 34.1 µM | UACC-62 19.5 µM | LOX IMVI 32.8 µM | Hs-578T 26.5 µM | SF-295 23.1 µM | EKVX 30.2 µM | SK-OV-3 13.3 µM | TK-10 18.7 µM
